Values of other authors in patent US20230165895A1, “COMPOSITIONS AND METHODS FOR EYE HEAL TH COMPRISING AREDS AND VITAMIN B COMPLEX” (BAUSCH + LOMB IRELAND LIMITED, priority 2020, published 2023).

Details: no test, species or source described; stated next to the RDA

Structure (SMILES): Cc1c(C)c2c(c(C)c1O)CC[C@@](C)(CCC[C@H](C)CCC[C@H](C)CCCC(C)C)O2 [vitamin E, alpha tocopherol]
- levels at which no adverse effects have been observed: ≤ 800.0 mg
